Literature values as cited in patent US11773111B1, “Selective 5-LO inhibitors for the treatment of bronchial asthma” (KING FAISAL UNIVERSITY, priority 2022, dated 2023).

What was measured:
[1] = clinical use
[2] = not given; remark: listed apart in the source

With `CC(c1cc2ccccc2s1)N(O)C(N)=O` (stereo not drawn) [Zileuton] as the molecule, how does the undesirable side effects [1] read?
The undesirable side effects was “hepatoxicity”.

And the serum half-life?
Its serum half-life is 3 h.

What about the plasma protein binding [2] of the same molecule?
Its plasma protein binding is 93%.
